Several values for one entry are separate records, joined by “and”; a condition that tells them apart may be missing. Equal entries are not always repeated. Entries after “also recorded” stand apart in the source; their conditions may differ.
Columns and labels:
P. aeruginosa PAO1 = test: Microtiter plate assay: planktonic growth (OD600) and crystal violet staining of biofilm (OD590); type: cell-based, Pseudomonas aeruginosa
Protocol: Cadaverine (Sigma Aldrich) 5- or 10-mM stocks were prepared in LB and sterile filtered with a […] filter. […] […] Outer edge wells were filled with PBS to avoid “edge effects” due to evaporation. OD600 was measured to quantify planktonic growth. Liquid media was gently aspirated, and wells were washed three times with 150 μL PBS. Adhered biofilm was stained with 125 μL of 0.1% crystal violet (CV) in 20% ethanol in ddH2O (v/v) for 30 min. CV was gently aspirated, wells were washed five times with 150 μL PBS, and CV was solubilized with 150 μL 33% glacial acetic acid in ddH2O (v/v) by shaking gently at 100 rpm at room temperature for 25 min. CV was quantified at OD590 to report biofilm accumulation. LB blanks were averaged and subtracted from readings. Control PAO1 wells were averaged, and all measurements were normalized to control measurements per plate and reported as percent change from control.

[1] = test system: P. aeruginosa PAO1 biofilm; test: Confocal laser scanning microscopy (CLSM) of biofilm accumulation; type: cell-based, Pseudomonas aeruginosa; settings: 3.30 mM cadaverine, 24 hrs, SYTO 9, n=5
Protocol: PAO1 overnight cultures were diluted to OD600=0.17 in LB with 0 or 3.30 mM cadaverine in 35×10 mm confocal dishes and incubated statically at 37° C. in 5% CO2 for 24 hrs. Liquid media was aspirated and adhered biofilm was stained with SYTO 9 for 10 min and washed with PBS. CLSM stitched images were collected (n=5) with a laser power of 4.5% under 10× magnification using an Olympus FluoView FV10i CLSM. Mean gray scale value and surface area coverage were quantified using Fiji.

PAO1 Td-tomato or Xen41 = test: Culture imaging by photo, dissecting microscope and IVIS (biofilm morphology); type: cell-based, Pseudomonas aeruginosa; settings: 3.30 mM cadaverine
Protocol: PAO1 Td-tomato or Xen41 cultures were grown similarly to CLSM cultures described above. iPhone 8 images were taken in a controlled well-lit environment. The air-liquid interface was imaged using an Amscope dissecting microscope with an MU500 camera. Xen41 light emission was detected with an IVIS Lumina II system (Caliper LifeSciences) as an indicator of biofilm activity.

rats = settings: 2,000 mg/kg body weight in rats; cited from earlier work
HT29 intestinal cells = settings: up to 70 mM in HT29 intestinal cells; cited from earlier work
P. aeruginosa = settings: previous studies; cited from earlier work
[2] = PAO1 Td-tomato, cadaverine 24 hrs
[3] = pre-formed biofilm: grown 24 hrs, then cadaverine for additional 24 hrs

NCCCCCN [Cadaverine]
bactericidal or bacteriostatic effect (P. aeruginosa PAO1; OD600, 0-3.30 mM cadaverine): not bactericidal; also recorded: did not have a bactericidal or bacteriostatic effect
biofilm accumulation decrease (crystal violet OD590), percent change from control (P. aeruginosa PAO1; [2]): 37%
planktonic growth increase (OD600), percent change from control (P. aeruginosa PAO1; [2]): 4%
planktonic growth increase (OD600), percent change from control (P. aeruginosa PAO1; WT PAO1, 0-3.30 mM cadaverine from initiation, 24 hrs, maximal (3.30 mM)): 20.5±4.2% and 21%
biofilm accumulation (crystal violet OD590) at low concentration (P. aeruginosa PAO1; WT PAO1, 25 μM cadaverine, 24 hrs): increased marginally
biofilm accumulation decrease (crystal violet OD590), percent change from control (P. aeruginosa PAO1; [3]): 39.8±2.5% and 40%
planktonic growth increase (OD600), percent change from control (P. aeruginosa PAO1; [3]): 5.8±1.8% and 6%
reduction in biofilm accumulation by mean grayscale value [1]: 54.5±26.0% and 55%
reduction in biofilm accumulation by surface area coverage [1]: 79.8±55.1% and 80%
biofilm morphology (PAO1 Td-tomato or Xen41; 24 hrs, standing liquid culture, PAO1 Td-tomato): more aggregate-like, in a pellicle
metabolic state of pellicle biofilm (IVIS luminescence) (PAO1 Td-tomato or Xen41; PAO1 Xen41, air-liquid interface): metabolically active
acute oral toxicity (rats): low acute oral toxicity
cytotoxicity (HT29 intestinal cells): negligible cytotoxicity
effect on effectiveness of β-lactams (P. aeruginosa): enhances the effectiveness of many β-lactams

— patent US12332198B2, “Metabolite based diagnostics for periprosthetic joint infection” (priority 2022, dated 2025)
